What follows are compounds tested against T1, Complement C1s subcomponent (Homo sapiens, UniProt P09871) (assay: C1s inhibitor IC50 values, dose response, biochemical (AID 787)).
T1 sequence (P09871 whole entry): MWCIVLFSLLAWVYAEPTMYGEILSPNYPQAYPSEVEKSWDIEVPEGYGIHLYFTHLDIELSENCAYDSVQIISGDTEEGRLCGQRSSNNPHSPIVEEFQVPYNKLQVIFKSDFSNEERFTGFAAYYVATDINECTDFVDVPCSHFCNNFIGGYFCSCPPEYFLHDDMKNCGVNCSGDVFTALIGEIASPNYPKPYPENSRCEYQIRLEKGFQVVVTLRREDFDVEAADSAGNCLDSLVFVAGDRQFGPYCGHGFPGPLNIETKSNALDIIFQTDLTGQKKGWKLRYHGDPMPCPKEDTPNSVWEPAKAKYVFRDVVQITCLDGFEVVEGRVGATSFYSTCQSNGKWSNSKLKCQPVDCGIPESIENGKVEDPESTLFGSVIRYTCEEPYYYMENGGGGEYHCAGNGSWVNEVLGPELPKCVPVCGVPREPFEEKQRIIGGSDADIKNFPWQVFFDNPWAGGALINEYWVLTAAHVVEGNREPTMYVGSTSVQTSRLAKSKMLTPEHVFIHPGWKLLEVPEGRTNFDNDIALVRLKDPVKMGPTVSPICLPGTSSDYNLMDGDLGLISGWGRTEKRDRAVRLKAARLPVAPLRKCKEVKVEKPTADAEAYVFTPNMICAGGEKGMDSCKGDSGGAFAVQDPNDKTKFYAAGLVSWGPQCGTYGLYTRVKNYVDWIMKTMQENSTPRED
CCOC(=O)c1ccc(CSc2nncn2N)o1 [5-[[(4-amino-1,2,4-triazol-3-yl)thio]methyl]-2-furancarboxylic acid ethyl ester] gave an IC50 of over 50 µM.
Work on N#Cc1cnn(CC2CCCCC2)c1N [5-amino-1-(cyclohexylmethyl)-4-pyrazolecarbonitrile] yielded an IC50 of over 50 µM.
Work on Cc1cc(NC(=O)c2cc3nc(C4CC4)cc(C(F)(F)F)n3n2)no1 [5-cyclopropyl-N-(5-methyl-1,2-oxazol-3-yl)-7-(trifluoromethyl)pyrazolo[1,5-a]pyrimidine-2-carboxamide] yielded an IC50 of over 50 µM.
With Cc1ccc(CCNC(=O)C2CCC(=O)N2Cc2cccnc2)cc1 (stereo not given) [5-keto-N-[2-(p-tolyl)ethyl]-1-(3-pyridylmethyl)pyrrolidine-2-carboxamide] the IC50 was over 50 µM.
In the case of CCOc1cc2[nH]c(=S)n(CC3CCCO3)c(=O)c2cc1OCC (stereo not given) [6,7-diethoxy-3-(2-oxolanylmethyl)-2-sulfanylidene-1H-quinazolin-4-one], the IC50 is reported as over 50 µM.
O=C(Cn1c(=O)oc2cc(S(=O)(=O)N3CCc4ccccc43)ccc21)N1CCCCC1 [6-(2,3-dihydroindol-1-ylsulfonyl)-3-(2-oxidanylidene-2-piperidin-1-yl-ethyl)-1,3-benzoxazol-2-one] showed an IC50 of over 50 µM.
For CC(=O)c1cc2c(cc1NC(=O)C1CC=CCC1C(=O)O)OCO2 (stereo not given) [6-[(6-acetyl-1,3-benzodioxol-5-yl)carbamoyl]cyclohex-3-ene-1-carboxylic acid], the IC50 was over 50 µM.
Cc1coc2c(C)c3oc(=O)c4c(c3cc12)CCCC4 [7,10-dimethyl-1,2,3,4-tetrahydro-[1]benzofuro[6,5-c]isochromen-5-one] gave an IC50 of over 50 µM.
In the case of CCOc1ccc(C2CC(c3cccc(Cl)c3)n3nc(N)nc3N2)cc1 (stereo not given) [7-(3-chlorophenyl)-5-(4-ethoxyphenyl)-1,5,6,7-tetrahydro-[1,2,4]triazolo[1,5-a]pyrimidin-2-amine], the IC50 is reported as over 50 µM.
For COc1cc(C(Nc2ccccn2)c2ccc3ccc(C)nc3c2O)cc(OC)c1O (stereo not given) [7-[(3,5-dimethoxy-4-oxidanyl-phenyl)-(pyridin-2-ylamino)methyl]-2-methyl-quinolin-8-ol], the IC50 was over 50 µM.
With Cc1nnc(SC(=O)N2c3ccccc3Sc3ccccc32)s1 [10-phenothiazinecarbothioic acid S-(5-methyl-1,3,4-thiadiazol-2-yl) ester] the IC50 was over 50 µM.
COc1ccc(Nc2cc(C)nc3nc(C)nn23)c(OC)c1 [(2,4-dimethoxyphenyl)-(2,5-dimethyl-[1,2,4]triazolo[1,5-a]pyrimidin-7-yl)amine] gave an IC50 of over 50 µM.
With COc1ccccc1Nc1nc(-c2cccs2)cs1 [(2-methoxyphenyl)-[4-(2-thienyl)thiazol-2-yl]amine] the IC50 was over 50 µM.
For COc1ccc(CC(=O)OCc2cc3ccccc3[nH]c2=O)cc1 [(2-oxidanylidene-1H-quinolin-3-yl)methyl 2-(4-methoxyphenyl)ethanoate], the IC50 was over 50 µM.
In the case of COc1ccc(C(=O)n2nc(-c3ccco3)nc2SC)cc1OC [(3,4-dimethoxyphenyl)-[3-(2-furanyl)-5-(methylthio)-1,2,4-triazol-1-yl]methanone], the IC50 is reported as 2.37 µM.
In the case of Cc1noc(C)c1COC(=O)c1ccccc1NC(=O)Cc1ccccc1 [(3,5-dimethyl-1,2-oxazol-4-yl)methyl 2-(2-phenylethanoylamino)benzoate], the IC50 is reported as over 50 µM.
COc1ccc(C(=O)n2ccc(C)n2)cc1Br [(3-bromanyl-4-methoxy-phenyl)-(3-methylpyrazol-1-yl)methanone] gave an IC50 of over 50 µM.
Oc1cccc(C(=S)N2CCN(Cc3ccccc3)CC2)c1 [(3-hydroxyphenyl)-[4-(phenylmethyl)-1-piperazinyl]methanethione] gave an IC50 of over 50 µM.
In the case of CCCS(=O)(=O)N1CCC(C(=O)N2CCN(Cc3ccccc3)CC2)CC1 [(4-benzylpiperazin-1-yl)-(1-propylsulfonylpiperidin-4-yl)methanone], the IC50 is reported as over 50 µM.
CCN1CCN(C=Nc2nc3c(s2)CCCC3)CC1 [(4-ethylpiperazino)methylene-(4,5,6,7-tetrahydro-1,3-benzothiazol-2-yl)amine] was tested, and the IC50 was over 50 µM.
With COc1ccc(C(=O)OCn2nnc3ccccc3c2=O)cc1OC [(4-oxidanylidene-1,2,3-benzotriazin-3-yl)methyl 3,4-dimethoxybenzoate] the IC50 was over 50 µM.
Cc1cccc(COc2ccc(C(=O)C3C(=O)C(=O)N(CCN(C)C)C3c3ccncc3)cc2)c1 (stereo not given) [(4E)-1-[2-(dimethylamino)ethyl]-4-[[4-[(3-methylphenyl)methoxy]phenyl]-oxidanyl-methylidene]-5-pyridin-4-yl-pyrrolidine-2,3-dione] was tested, and the IC50 was over 50 µM.
Work on Nc1nc(C(=O)N2CCOCC2)nn1C(=O)c1ccc(Cl)cc1 [(5-azanyl-3-morpholin-4-ylcarbonyl-1,2,4-triazol-1-yl)-(4-chlorophenyl)methanone] yielded an IC50 of 12.1 µM.
CC1CNC(=Nc2cccc3ccccc23)S1 (stereo not given) [(5-methyl-2-thiazolin-2-yl)-(1-naphthyl)amine] gave an IC50 of over 50 µM.
With CCOC(=O)N1CCC2=C(C#N)C(=N)C(C#N)(C#N)[C@H](c3ccccc3OCC)[C@H]2C1 [(8R,8aR)-6-amino-5,7,7-tricyano-8-(2-ethoxyphenyl)-1,3,8,8a-tetrahydroisoquinoline-2-carboxylic acid ethyl ester] the IC50 was over 50 µM.
Work on CNC=C1C(=O)C(C)(C)Oc2ccc3ccc(=O)oc3c21 [(10Z)-8,8-dimethyl-10-(methylaminomethylene)pyrano[2,3-f]chromene-2,9-quinone] yielded an IC50 of over 50 µM.
For COC(=O)c1ccc(OC(=O)c2ccco2)cc1 [Furan-2-carboxylic acid 4-methoxycarbonyl-phenyl ester], the IC50 was 17.1 µM.
Work on CCC(=O)Oc1ccc(C(CC)C(CC)c2ccc(OC(=O)CC)cc2)cc1 (stereo not given) [HEXESTROL DIPROPIONATE] yielded an IC50 of over 50 µM.
O=C1CS/C(=N\c2ccc(O)cc2)N1c1ccc(O)cc1 [MLS000027731] showed an IC50 of over 50 µM.
Work on COc1cc(NC(=O)c2cccs2)c(OC)cc1NC(=O)CCn1nnc2ccccc21 [MLS000027885] yielded an IC50 of over 50 µM.
For COc1ccc(S(=O)(=O)n2nc(OC(=O)c3ccco3)cc2N)cc1 [MLS000033887], the IC50 was 11.3 µM.
Compound O=c1cc(-c2ccccc2)[nH]c2nc(-c3ccccc3)nn12 [MLS000037061] has an IC50 of over 50 µM.
Compound O=C(NC1CCS(=O)(=O)C1)c1cccc(S(=O)(=O)N2CCCCC2)c1 (stereo not given) [MLS000049608] has an IC50 of over 50 µM.
In the case of COc1ccc(NC(=O)C2CCC(=O)N2S(=O)(=O)c2ccc(C)cc2)c(OC)c1 (stereo not given) [MLS000050140], the IC50 is reported as over 50 µM.
Cc1csc(NC(=O)c2cccc(S(=O)(=O)N3CCCCC3)c2)n1 [MLS000058185] was tested, and the IC50 was over 50 µM.
COc1ccc(NC(=O)c2cccs2)cc1OC [MLS000058874] gave an IC50 of over 50 µM.
Compound O=C(Nc1ccc(Cl)cc1)c1ccc2c(c1)OCO2 [MLS000062068] has an IC50 of over 50 µM.
In the case of O=C(NC1CCCC1)c1cccc(S(=O)(=O)N2CCCCC2)c1 [MLS000065413], the IC50 is reported as over 50 µM.
With O=C(NCc1ccco1)c1cccc(S(=O)(=O)N2CCCCC2)c1 [MLS000065416] the IC50 was over 50 µM.
O=C(c1csc2ccccc12)n1cccn1 [MLS000065687] was tested, and the IC50 was 14.9 µM.
For Cc1ccc(NS(=O)(=O)c2cc(C(=O)N3CCOCC3)ccc2C)cc1C [MLS000066131], the IC50 was over 50 µM.
Work on CCCCC(=O)Nc1ccc(NC(=O)c2cccnc2)cn1 [MLS000068397] yielded an IC50 of over 50 µM.
In the case of O=C(c1ccco1)N1CCN(S(=O)(=O)c2ccc(S(=O)(=O)NC3CCCCC3)cc2)CC1 [MLS000068710], the IC50 is reported as over 50 µM.
For O=C(N1CCOCC1)C12CCC3CC(CC(C3)C1)C2 [MLS000071057], the IC50 was over 50 µM.
O=C(Nc1ccc2oc(=O)ccc2c1)c1cccnc1 [MLS000075075] was tested, and the IC50 was over 50 µM.

From BindingDB's records for doi:10.7270/Q2MP51PC (Pcmd, 2008)
